Reference: PMC3348258 (Nature, 2012)
Where “and” joins values, the source holds several entries; their conditions need not be identical. Identical values can stand only once.

Experiments:
[1] = molecular target: open BK channels; conditions: read-out: blocking affinity / Kd(0) for block of open BK channels; cited from earlier work
[2] = system: BK α subunits coexpressed with construct D20A; assay: Effect of pore blockers on β3a-mediated tail currents; type: cell-based, mSlo1 (mouse) with human β3a N-terminus on human β2; conditions: 10 μM Ca^2+; TBA 2 or 10 mM; bbTBA 200 and 400 μM
[3] = system: Shaker K^+ channels; conditions: cited from earlier work

Structure (SMILES) | Kd [1] | effect on β3a-mediated tail currents [2] | effect on inactivation onset [3]
CCCC[N+](CCCC)(CCCC)CCCC [TBA, tetrabutylammonium] | 900 µM and ~900 µM | both peak tail current and tail current time constant were reduced | –
CC[N+](CC)(CC)CC [TEA, tetraethylammonium] | – | – | slow inactivation onset
